The text below walks through data of patent publication US20110166173A1, “3,5-DISUBSTUTUTED 1H-PYRROLO [2,3-B] PYRIDINES AS JNK INHIBITORS” (Eisai Co., Ltd., priority 2004, published 2011).

Molecules are shown by their SMILES. Where only a bound is given, the exact number is not on record here.

In this assay the target is JNK3 (Homo sapiens, UniProt P53779). As to the kind of experiment: JNK3 SPA assay (phosphorylation of GST-c-Jun). The conditions noted are these: Scintillation proximity assay, GST-c-Jun substrate, 3.33 μM ATP, 30 minutes at room temperature. Type of assay: biochemical. Here is the method: JNK1, JNK2, JNK3—SPA Assay • 1. Compound is dissolved in DMSO to a convenient concentration and this is diluted in 10% DMSO to a five times concentrate of the desired starting concentration (frequently 1:100). • 2. 10 μl of 500 mM EDTA is added to alternative wells of the Opti-plate row, which will receive kinase reaction plus DMSO. This creates the negative control. • 3. For the JNK2 and JNK3 assay, compounds are prepared in six 2-fold dilutions with water and each concentration is tested in duplicate. For the JNK1 assay compounds are prepared in four 5-fold dilutions with water which are tested in triplicate. Controls are treated identically. • 4. 20 μl per well of each compound concentration is transferred to an Opti-plate, in duplicate. • 5. 30 μl (JNK2/3 SPA) or 50 μl (JNK1 SPA) of substrate solution (25 mM HEPES pH 7.5, 10 mM magnesium acetate with 3.33 μM ATP (JNK2/3) or 2 μM ATP (JNK1), approximately 7.5 kBq [γ-^33P] ATP, GST-c-Jun, in water) is added to each well. • 6. 50 μl (JNK2/3 SPA) or 30 μl (JNK1 SPA) of kinase solution (JNK in 25 mM HEPES pH 7.5, 10 mM Mg Acetate) is added to each well.
Sequence of JNK3 (P53779 whole entry): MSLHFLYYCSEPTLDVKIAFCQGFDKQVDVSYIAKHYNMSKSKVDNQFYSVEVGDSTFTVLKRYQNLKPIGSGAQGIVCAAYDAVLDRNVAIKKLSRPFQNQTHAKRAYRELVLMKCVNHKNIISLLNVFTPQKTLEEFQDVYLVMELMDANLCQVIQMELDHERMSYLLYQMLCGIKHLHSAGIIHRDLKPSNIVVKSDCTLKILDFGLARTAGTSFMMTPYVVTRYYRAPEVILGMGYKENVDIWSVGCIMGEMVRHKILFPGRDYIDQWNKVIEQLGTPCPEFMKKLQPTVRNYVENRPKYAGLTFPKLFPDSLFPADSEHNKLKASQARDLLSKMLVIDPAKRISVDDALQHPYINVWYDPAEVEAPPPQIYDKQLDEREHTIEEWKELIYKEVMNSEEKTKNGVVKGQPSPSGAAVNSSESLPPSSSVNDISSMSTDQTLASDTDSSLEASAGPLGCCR
• 7. The plate is incubated for 30 minutes at room temperature. • 8. 100 μl of bead/stop solution is added to each well (5 mg/ml glutathione-PVT-SPA beads, 40 mM ATP in PBS). • 9. Plates are sealed and incubated for 30 minutes at room temperature, centrifuged for 10 minutes at 2500 g and counted. • 10. The IC50 values are calculated as the concentration of the compound being tested at which the phosphorylation of c-Jun is decreased to 50% of the control value.
As to `O=C(Nc1ccc2[nH]ccc2c1)c1cnc2[nH]cc(-c3ccoc3)c2c1`, the half-maximal inhibitory concentration (IC50) – broadly, the midpoint of a concentration-inhibition curve – is below 1000 nM.
`O=C(c1cnc2[nH]cc(-c3ccoc3)c2c1)N1CCc2ccccc2C1` returned a half-maximal inhibitory concentration (IC50) below 500 nM.
In turn, `O=C(NCCc1c[nH]c2ccccc12)c1cnc2[nH]cc(-c3ccoc3)c2c1` showed a half-maximal inhibitory concentration (IC50) below 500 nM.
For the compound `O=C(c1cnc2[nH]cc(-c3ccoc3)c2c1)N1CCCC1`, the half-inhibitory concentration (IC50) is below 500 nM.
Take `CN(C)c1ccc(C(=O)c2cnc3[nH]cc(-c4cnn(C)c4)c3c2)cc1`: the IC50 was below 500 nM.
